The text below walks through data of US20240270698A2, “NOVEL PYRIMIDINE DERIVATIVE AND USE THEREOF” (KOREA RESEARCH INSTITUTE OF CHEMICAL TECHNOLOGY, priority 2019, published 2024).

The subject of one data set is HepG2 cancer cells. In words: Anticancer activity, cell viability by CCK-8, HepG2. It counts as cell-based. The following applies: HepG2, 10 μM, 72 hours. Put shortly:
(§1)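 HS746T or HepG2 cells seeded at 4,000 cells/well, left 24 h, then exposed to compounds for 72 h. Viability measured by CCK-8 and expressed as % of untreated control.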

Data set [1] deals with T1, human recombinant MLK3 protein (Homo sapiens, UniProt Q16584).
T1 construct: purchased Eurofins
The experiment in a line: MLK3 kinase activity assay (Eurofins, gamma-33P-ATP, filtermat scintillation counting). It is filed as biochemical. The conditions noted are these: human recombinant MLK3, 120 minutes at room temperature.

The subject of the next data set is HS746T cancer cells. The experiment in a line: Anticancer activity, cell viability by CCK-8, HS746T. The conditions noted are these: 72 hours. It counts as cell-based. The method, boiled down: as §1
In data set [2] the target is T2, human recombinant LRRK2 protein (Homo sapiens, UniProt Q5S007).
T2 construct: purchased Eurofins
In words: LRRK2 kinase activity assay (Eurofins, gamma-33P-ATP, filtermat scintillation counting). It counts as biochemical. The following applies: human recombinant LRRK2, 40 minutes at room temperature.

A word on the IC50: it is the concentration that inhibits the measured activity by half.

T1 sequence (Q16584 whole entry): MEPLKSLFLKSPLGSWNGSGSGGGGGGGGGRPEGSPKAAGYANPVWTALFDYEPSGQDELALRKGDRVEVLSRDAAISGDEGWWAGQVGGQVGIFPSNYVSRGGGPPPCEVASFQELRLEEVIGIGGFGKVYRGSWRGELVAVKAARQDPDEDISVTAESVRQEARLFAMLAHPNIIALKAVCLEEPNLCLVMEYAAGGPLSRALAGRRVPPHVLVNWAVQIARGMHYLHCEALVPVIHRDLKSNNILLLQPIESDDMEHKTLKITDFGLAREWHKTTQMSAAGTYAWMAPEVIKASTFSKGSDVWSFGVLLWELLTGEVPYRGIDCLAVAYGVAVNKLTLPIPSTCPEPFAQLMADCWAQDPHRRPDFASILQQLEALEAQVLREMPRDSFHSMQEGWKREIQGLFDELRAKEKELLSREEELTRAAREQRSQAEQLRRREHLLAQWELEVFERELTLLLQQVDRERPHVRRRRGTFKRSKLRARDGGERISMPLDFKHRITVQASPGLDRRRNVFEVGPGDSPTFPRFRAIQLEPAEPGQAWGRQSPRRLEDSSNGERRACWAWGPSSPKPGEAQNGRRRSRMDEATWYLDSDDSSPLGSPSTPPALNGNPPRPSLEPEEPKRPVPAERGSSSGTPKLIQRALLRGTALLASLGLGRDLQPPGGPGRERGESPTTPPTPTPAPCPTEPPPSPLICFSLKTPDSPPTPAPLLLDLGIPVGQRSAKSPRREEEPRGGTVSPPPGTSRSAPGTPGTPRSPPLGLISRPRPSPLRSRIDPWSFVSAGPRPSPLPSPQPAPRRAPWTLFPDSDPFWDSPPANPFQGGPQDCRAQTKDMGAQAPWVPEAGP
T2 sequence (Q5S007 whole entry): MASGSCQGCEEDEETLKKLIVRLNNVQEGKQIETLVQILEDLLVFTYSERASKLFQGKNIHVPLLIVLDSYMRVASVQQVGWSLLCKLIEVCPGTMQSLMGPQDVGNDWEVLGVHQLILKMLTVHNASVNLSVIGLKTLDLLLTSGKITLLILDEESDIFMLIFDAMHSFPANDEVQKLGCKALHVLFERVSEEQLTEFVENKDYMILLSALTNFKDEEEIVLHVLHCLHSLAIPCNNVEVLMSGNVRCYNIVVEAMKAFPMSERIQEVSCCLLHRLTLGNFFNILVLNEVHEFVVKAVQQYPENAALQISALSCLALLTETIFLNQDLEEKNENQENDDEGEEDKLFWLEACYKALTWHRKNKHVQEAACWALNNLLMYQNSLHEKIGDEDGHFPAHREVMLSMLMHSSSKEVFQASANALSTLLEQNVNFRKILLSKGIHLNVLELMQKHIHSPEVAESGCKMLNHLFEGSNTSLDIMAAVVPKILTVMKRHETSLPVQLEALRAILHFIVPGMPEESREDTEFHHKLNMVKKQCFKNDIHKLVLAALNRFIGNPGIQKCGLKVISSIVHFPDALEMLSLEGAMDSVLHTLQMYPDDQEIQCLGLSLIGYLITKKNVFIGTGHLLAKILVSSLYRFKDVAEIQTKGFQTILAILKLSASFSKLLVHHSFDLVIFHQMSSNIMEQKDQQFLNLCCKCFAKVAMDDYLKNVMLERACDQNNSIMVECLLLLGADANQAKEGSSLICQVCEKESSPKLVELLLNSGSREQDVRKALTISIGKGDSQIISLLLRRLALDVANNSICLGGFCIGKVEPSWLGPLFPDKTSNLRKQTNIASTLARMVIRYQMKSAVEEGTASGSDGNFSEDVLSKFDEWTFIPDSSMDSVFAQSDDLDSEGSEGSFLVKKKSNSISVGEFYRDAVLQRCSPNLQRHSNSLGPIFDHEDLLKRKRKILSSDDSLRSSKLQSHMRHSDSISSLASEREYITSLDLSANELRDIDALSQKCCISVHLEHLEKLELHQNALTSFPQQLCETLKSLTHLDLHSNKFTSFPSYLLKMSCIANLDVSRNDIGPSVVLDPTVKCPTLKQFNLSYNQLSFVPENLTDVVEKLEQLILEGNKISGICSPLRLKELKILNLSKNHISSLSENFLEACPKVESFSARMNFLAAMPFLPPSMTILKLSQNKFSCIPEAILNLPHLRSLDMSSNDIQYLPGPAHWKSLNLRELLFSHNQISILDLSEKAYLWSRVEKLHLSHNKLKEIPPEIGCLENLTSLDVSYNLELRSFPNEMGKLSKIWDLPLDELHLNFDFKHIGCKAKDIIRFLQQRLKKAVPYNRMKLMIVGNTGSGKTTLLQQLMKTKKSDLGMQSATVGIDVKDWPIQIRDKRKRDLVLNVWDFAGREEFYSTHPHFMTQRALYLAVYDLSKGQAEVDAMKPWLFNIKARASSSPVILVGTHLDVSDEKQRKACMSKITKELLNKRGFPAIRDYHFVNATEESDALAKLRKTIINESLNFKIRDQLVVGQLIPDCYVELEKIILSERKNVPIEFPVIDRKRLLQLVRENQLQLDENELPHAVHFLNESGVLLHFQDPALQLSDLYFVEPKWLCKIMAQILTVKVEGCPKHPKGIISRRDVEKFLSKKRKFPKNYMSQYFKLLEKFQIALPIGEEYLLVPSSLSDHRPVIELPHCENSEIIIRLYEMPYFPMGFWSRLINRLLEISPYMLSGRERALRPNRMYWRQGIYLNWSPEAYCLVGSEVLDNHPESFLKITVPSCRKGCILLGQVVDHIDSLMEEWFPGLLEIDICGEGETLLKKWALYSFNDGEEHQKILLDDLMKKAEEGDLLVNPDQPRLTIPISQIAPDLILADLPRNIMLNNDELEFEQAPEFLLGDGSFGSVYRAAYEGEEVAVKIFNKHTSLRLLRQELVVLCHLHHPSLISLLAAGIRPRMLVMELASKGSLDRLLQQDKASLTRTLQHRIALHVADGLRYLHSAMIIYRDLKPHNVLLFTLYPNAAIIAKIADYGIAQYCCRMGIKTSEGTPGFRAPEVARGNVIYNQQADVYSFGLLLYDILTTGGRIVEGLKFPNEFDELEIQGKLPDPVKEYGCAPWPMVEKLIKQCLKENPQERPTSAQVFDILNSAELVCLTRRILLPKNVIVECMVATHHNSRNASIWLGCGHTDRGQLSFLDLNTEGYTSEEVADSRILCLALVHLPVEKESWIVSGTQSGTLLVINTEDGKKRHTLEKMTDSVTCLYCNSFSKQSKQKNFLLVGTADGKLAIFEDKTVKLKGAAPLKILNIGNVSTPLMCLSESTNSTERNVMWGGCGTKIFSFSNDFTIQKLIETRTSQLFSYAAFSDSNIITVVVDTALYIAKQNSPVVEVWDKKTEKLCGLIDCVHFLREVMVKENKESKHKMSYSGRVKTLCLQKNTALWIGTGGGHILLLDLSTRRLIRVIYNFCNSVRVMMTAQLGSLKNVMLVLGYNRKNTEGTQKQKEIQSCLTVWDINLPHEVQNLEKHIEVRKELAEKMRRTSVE

In the case of `CP(C)(=O)c1ccccc1Nc1nc(Nc2ccncc2)ncc1Cl` [compound 15, (2-((5-Chloro-2-(pyridin-4-ylamino)pyrimidin-4-yl)amino)phenyl) dimethylphosphine oxide], the “Cell viability (% of Con. 10 μM) HepG2” value in the data set on HepG2 cancer cells is on record as 116 % of Con. In addition, the IC50 in data set [1] and in data set [2] was greater than 1000 nM each time. Besides, in the data set with HS746T cancer cells, the “Cell viability (% of Con. 10 μM) HS746T” value is recorded as 110 % of Con.

`CP(C)(=O)c1ccccc1Nc1nc(Nc2cccc3[nH]ccc23)ncc1Cl` [compound 68, (2-((2-((1H-Indol-4-yl)amino)-5-chloropyrimidin-4-yl)amino)phenyl)dimethylphosphine oxide]: in the data set on HepG2 cancer cells, the “Cell viability (% of Con. 10 μM) HepG2” value was 43 % of Con. Further, the results for the IC50 in data set [1] and in data set [2] were 10 to 100 nM and 1 to 10 nM, respectively. Also, in the data set with HS746T cancer cells, the “Cell viability (% of Con. 10 μM) HS746T” value is 64 % of Con.
